Values quoted from earlier work in publication PMC7961821, “Comparing Ligninolytic Capabilities of Bacterial and Fungal Dye-Decolorizing Peroxidases and Class-II Peroxidase-Catalases” (International Journal of Molecular Sciences, 2021).

Key:
PchLiPA = molecular target: T1, PchLiPA (Phanerodontia chrysosporium, UniProt P06181); experiment: steady-state kinetics, absorbance loss at […] nm; assay type: biochemical; settings: read-out: RB19; 1 mM H2O2, optimal pH (not given for RB19), 25 °C
T1 construct: gene LPOA; heme enzyme

PerVPL = molecular target: T2, PerVPL (Pleurotus eryngii, UniProt O94753); experiment: steady-state kinetics, absorbance loss at […] nm; assay type: biochemical; settings: read-out: RB19; 1 mM H2O2, optimal pH (not given for RB19), 25 °C
T2 construct: gene vpl2; heme enzyme
T2 sequence (O94753 31-361): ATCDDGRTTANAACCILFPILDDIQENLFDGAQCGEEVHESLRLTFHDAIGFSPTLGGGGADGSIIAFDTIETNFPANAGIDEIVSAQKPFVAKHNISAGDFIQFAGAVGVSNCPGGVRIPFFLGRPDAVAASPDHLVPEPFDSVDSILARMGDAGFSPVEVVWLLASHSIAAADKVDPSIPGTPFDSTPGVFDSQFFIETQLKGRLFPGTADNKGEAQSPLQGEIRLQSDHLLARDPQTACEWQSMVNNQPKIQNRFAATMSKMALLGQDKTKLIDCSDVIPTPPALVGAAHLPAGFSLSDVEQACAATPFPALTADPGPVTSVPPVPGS

T1 sequence (P06181 29-372): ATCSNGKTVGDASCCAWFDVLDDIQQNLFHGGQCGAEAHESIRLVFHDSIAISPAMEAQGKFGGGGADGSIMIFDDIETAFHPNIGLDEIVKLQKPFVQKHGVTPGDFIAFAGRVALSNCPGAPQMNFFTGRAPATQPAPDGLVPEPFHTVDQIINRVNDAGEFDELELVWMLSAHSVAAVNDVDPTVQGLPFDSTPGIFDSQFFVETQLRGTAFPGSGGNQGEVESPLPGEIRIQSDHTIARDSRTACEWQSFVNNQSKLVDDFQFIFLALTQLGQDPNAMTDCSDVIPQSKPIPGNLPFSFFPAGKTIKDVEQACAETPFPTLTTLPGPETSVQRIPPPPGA

## Nc1c(S(=O)(=O)O)cc(Nc2cccc(S(=O)(=O)CCOS(=O)(=O)O)c2)c2c1C(=O)c1ccccc1C2=O [RB19]
PchLiPA
  Km: 34 ± 13 µM
PerVPL
  Km: 33 ± 8 µM
